According to patent publication EP4219453A1 (Sichuan Kelun-Biotech Biopharmaceutical Co., Ltd., priority 2020, dated 2022):

Key:
[1] = molecular target: T1, TGFβR1 (Homo sapiens, UniProt P36897); assay: In vitro enzymatic activity inhibition test (TGFβR1), ADP-Glo Kinase Detection Kit; format: biochemical; settings: calculated from percent inhibition at 1000 nM, 100 nM, 10 nM
T1 sequence (P36897 34-503): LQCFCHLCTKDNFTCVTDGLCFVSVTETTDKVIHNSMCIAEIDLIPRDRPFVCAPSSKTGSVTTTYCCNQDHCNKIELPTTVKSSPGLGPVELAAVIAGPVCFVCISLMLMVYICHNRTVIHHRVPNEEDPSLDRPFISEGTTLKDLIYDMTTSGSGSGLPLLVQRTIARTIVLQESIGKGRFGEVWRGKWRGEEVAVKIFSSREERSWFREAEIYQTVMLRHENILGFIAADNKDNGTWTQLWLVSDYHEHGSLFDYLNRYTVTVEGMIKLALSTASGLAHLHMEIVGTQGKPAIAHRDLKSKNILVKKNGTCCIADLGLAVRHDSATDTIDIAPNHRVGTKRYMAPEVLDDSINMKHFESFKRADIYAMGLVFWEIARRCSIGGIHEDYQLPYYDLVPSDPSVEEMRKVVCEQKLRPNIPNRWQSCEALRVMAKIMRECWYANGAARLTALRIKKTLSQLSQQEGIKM
Protocol: Test Example 1: In vitro enzymatic activity inhibition test (TGFβR1).
Experimental method: According to the instructions of ADP-Glo™ Kinase Detection Kit (Promega), the inhibitory effect of the compounds of the present invention on the enzymatic activity of TGFβR1 was determined, and the steps were as follows: TGFβR1 enzyme were pre-incubated with different concentrations of test compounds (1000 nM, 100 nM, 10 nM) at 30°C for 30 min, TGFβR1 peptide and adenosine triphosphate (ATP) were added to initiate the reaction. The incubation was performed at 30°C for 3 h, followed by an addition of ADP-Glo™ reagent and incubated at room temperature for 90 min, kinase detection reagent was then added. Chemiluminescence signal values were detected after incubation at room temperature for another 30 min.
When the percent inhibition rate was between 30% and 80%, the median inhibitory concentration (IC50) or range of the compound was calculated according to the following formula: IC50 = X × (1 - percent inhibition rate (%)) / percent inhibition rate (%), wherein X is the concentration of the compound at which the inhibition rate is between 30% and 80%.

[2] = molecular target: T2, hERG (Homo sapiens, UniProt Q12809); assay: Biochemical hERG inhibition test, Predictor hERG fluorescence polarization kit; format: binding; settings: hERG cell membrane, competition with Tracer 1 nM, 10 µM and 1 µM test compound, 2 h
T2 construct: purchased ThermoFisher
Protocol: Test Example 4: Biochemical hERG inhibition test
• 1. Test system: Kit: Predictor™ hERG fluorescence polarization detection kit (ThermoFisher), the kit contained the following components: positive control compound hERG potassium channel blocker E4031; hERG cell membrane; affinity tracer Tracer; and hERG buffer. • 2. Test parameters: hERG concentration: 1×; Tracer concentration: 1 nM; incubation time: 2 h; BMG PHERAstar FSFP. • 3.
Positive control group: 30 µM positive control compound E4031 was used to replace the test compound, and the experimental method was the same as that of the test group.
Blank control group: hERG buffer was used to replace the test compound without the addition of hERG cell membrane, and the experimental method was the same as that of the test group.
According to the data ratio, the percent inhibition rates (%) of the compounds of the present invention to hERG at different concentrations were calculated, and the ranges of the half inhibitory concentration (IC50) of the compounds were determined.

[3] = molecular target: T3, CYP2D6 (Homo sapiens, UniProt P10635); assay: CYP enzyme inhibition test, P450-Glo CYP2D6 Screening System; format: in vitro ADME; settings: Luciferin-ME EGE 3 µM
T3 construct: purchased Promega
Protocol: (§1) Test Example 5: CYP enzyme (Cytocrome P450) inhibition test
(§2) • 1. Test system: • P450-Glo™ CYP1A2 Screening System (Promega); • P450-Glo™ CYP2D6 Screening System (Promega); • P450-Glo™ CYP3A4 Screening System (Promega). • 2. Test instrument: BMG PHERAstar FS Luminescent. • 3. Test method: The test was carried out according to the kit instructions, and the steps were as follows: 3.1. Inhibition of CYP1A2:
(§3) Test group: The test compound of different concentration was added to the microplate, and Luciferin-ME EGE (3 µM), K3PO4 (100 mM) and CYP2D6 (5 nM) were added to each well, and pre-incubated at room temperature for 10 min, followed by an addition of the NADPH regeneration system, and reacted at 37°C for 30 min, an equal volume of detection buffer was added at last, and incubated at room temperature for 20 min, and then chemiluminescence detection was performed.
(§4) Negative control group: The experimental method was the same as that of the test group, but the test compound was not added.
Blank control group: The experimental method was the same as that of the test group, but the test compound was not added, and CYP2D6 Membrance (5 nM) was used instead of CYP2D6.
(§5) The median inhibitory concentration (IC50) or range of the compound was estimated according to the inhibition rate of CYP enzymes at different concentrations: IC50 = X × (1 - percent inhibition rate (%)) / percent inhibition rate (%), wherein X is the test concentration of the compound.

[4] = molecular target: T4, CYP3A4 (Homo sapiens, UniProt P08684); assay: CYP enzyme inhibition test, P450-Glo CYP3A4 Screening System; format: in vitro ADME; settings: Luciferin-IPA 3 µM
T4 construct: purchased Promega
Protocol: as §1, §2
as §3, with “Luciferin-IPA” for “and Luciferin-ME EGE”, “CYP3A4 (2” for “CYP2D6 (5”, “room temperature” for “37°C”
as §4
Blank control group: The experimental method was the same as that of the test group, but the test compound was not added, and CYP3A4 Membrance (2 nM) was used instead of CYP3A4.
as §5

T4 sequence (P08684 whole entry): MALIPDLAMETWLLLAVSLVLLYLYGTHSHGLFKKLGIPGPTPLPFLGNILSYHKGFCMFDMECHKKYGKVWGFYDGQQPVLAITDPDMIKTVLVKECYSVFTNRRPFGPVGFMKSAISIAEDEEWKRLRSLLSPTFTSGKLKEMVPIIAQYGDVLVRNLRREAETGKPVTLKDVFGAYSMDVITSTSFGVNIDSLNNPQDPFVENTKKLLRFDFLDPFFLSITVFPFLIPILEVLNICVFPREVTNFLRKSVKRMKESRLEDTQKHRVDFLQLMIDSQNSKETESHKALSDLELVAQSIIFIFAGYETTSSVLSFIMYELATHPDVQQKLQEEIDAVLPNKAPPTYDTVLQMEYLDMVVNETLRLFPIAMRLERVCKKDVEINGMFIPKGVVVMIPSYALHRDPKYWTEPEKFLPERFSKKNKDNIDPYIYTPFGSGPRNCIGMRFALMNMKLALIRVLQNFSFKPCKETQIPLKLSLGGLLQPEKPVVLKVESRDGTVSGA
T3 sequence (P10635 whole entry): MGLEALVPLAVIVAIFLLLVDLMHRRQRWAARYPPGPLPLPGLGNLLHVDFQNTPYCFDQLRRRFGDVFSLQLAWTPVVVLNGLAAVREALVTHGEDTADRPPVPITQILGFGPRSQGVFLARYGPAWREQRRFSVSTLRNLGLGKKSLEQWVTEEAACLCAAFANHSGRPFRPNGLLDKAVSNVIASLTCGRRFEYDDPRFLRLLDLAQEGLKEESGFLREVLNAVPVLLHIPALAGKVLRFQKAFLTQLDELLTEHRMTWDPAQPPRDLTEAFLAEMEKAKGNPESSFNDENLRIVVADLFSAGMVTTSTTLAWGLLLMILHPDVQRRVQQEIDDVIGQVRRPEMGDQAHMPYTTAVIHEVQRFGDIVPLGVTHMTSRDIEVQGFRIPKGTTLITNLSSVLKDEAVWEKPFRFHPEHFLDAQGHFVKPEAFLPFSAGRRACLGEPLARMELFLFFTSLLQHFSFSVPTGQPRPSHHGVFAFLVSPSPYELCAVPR
T2 sequence (Q12809 whole entry): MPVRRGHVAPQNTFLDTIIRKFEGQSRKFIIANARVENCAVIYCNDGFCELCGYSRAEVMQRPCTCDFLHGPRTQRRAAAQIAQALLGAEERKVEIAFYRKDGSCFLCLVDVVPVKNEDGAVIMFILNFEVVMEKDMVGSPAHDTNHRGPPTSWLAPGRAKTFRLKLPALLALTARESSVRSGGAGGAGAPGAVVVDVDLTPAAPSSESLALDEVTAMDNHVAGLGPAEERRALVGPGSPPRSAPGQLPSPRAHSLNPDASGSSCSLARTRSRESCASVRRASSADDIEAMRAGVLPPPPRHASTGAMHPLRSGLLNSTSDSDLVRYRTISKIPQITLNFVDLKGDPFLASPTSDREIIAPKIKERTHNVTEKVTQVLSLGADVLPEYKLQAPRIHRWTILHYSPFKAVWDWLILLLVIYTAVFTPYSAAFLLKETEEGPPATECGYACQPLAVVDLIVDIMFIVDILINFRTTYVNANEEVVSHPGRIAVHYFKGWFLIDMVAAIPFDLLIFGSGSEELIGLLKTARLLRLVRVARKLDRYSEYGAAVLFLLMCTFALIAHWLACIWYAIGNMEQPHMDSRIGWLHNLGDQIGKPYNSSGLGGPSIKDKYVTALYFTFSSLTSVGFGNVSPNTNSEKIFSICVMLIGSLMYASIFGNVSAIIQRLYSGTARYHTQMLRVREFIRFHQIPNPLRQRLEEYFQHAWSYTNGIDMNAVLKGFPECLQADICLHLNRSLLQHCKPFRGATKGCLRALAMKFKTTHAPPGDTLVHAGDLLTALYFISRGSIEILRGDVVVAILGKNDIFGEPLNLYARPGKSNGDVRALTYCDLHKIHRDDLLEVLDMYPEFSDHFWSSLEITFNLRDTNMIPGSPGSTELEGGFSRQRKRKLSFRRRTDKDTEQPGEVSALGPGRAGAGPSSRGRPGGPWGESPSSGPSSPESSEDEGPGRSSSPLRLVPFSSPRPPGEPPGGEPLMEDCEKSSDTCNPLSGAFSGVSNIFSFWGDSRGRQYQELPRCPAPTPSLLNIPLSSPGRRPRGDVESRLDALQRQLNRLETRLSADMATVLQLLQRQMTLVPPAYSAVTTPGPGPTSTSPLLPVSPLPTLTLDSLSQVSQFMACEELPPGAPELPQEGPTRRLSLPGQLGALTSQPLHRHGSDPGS

| IC50 [3] [µM] | IC50 [4] [µM] | SMILES | IC50 [1] [nM] | IC50 [2] [µM] | IC50 ([3]; 30 min) [µM] | IC50 ([4]; 30 min) [µM] |
| --- | --- | --- | --- | --- | --- | --- |
| > 10 | > 10 | Cc1cccc(-n2nc(NCc3ccc(F)cc3)cc2-c2ccn3ncc(C(N)=O)c3c2)n1 [Example 11, 5-(3-(4-fluorobenzylamino)-1-(6-methylpyridin-2-yl)-1H-pyrazol-5-yl)pyrazolo[1,5-a]pyridine-3-carboxamide] | 0.5 ± 0.21 | > 10 | – | – |
| > 10 | > 10 | CNc1cc(-c2ccn3ncc(C(N)=O)c3c2)n(-c2cccc(C)n2)n1 [Example 8, 5-(3-(methylamino)-1-(6-methylpyridin-2-yl)-1H-pyrazol-5-yl)pyrazolo[1,5-a]pyridine-3-carboxamide] | 8.27 ± 0.11 | > 10 | – | – |
| > 10 | > 10 | Cc1cccc(-n2nccc2-c2ccn3ncc(C(N)=O)c3c2)n1 [Example 12, 5-(1-(6-methylpyridin-2-yl)-1H-pyrazol-5-yl)pyrazolo[1,5-a]pyridine-3-carboxamide] | 9.39 ± 2.15 | > 10 | – | – |

Second part, the compound before the results:

| SMILES | IC50 [3] [µM] | IC50 [4] [µM] | IC50 [1] [nM] | IC50 [2] [µM] | IC50 ([3]; 30 min) [µM] | IC50 ([4]; 30 min) [µM] |
| --- | --- | --- | --- | --- | --- | --- |
| Cc1cccc(-n2nc(NC(C)c3ccc(F)cc3)cc2-c2ccn3ncc(C(N)=O)c3c2)n1 (stereo not drawn) [Example 10, 5-(3-(1-(4-fluorophenyl)ethylamino)-1-(6-methylpyridin-2-yl)-1H-pyrazol-5-yl)pyridino[1,5-a]pyridine-3-carboxamide] | > 10 | > 10 | 4.82 ± 0.51 | > 10 | – | – |
| Cc1cccc(-n2nc3c(c2-c2ccn4ncc(C(N)=O)c4c2)CCC3)n1 [Example 6, 5-[2-(6-methylpyridin-2-yl)-2,4,5,6-tetrahydrocyclopenteno[c]pyrazol-3-yl]pyrazolo[1,5-a]pyridine-3-carboxamide] | – | – | 2.36 ± 0.68 | > 10 | > 10 | > 10 |
| Cc1cccc(-n2nc3c(c2-c2ccn4nccc4c2)CCC3)n1 [Example 4, 5-[2-(6-methylpyridin-2-yl)-2,4,5,6-tetrahydrocyclopenteno [c]pyrazol-3-yl]pyrazolo[1,5-a]pyridine] | > 10 | > 10 | 12 ± 5.4 | > 10 | – | – |
